Data reported in patent US12605350B2, “Composition for preventing, ameliorating, or treating disease caused by nitration of tyrosine in proteins comprising tyrosine as effective component” (INDUSTRY-ACADEMIC COOPERATION FOUNDATION GYEONGSANG …, priority 2020, dated 2026).

Target: T1, human recombinant MnSOD (Homo sapiens, UniProt P04179)
T1 sequence (P04179 25-222): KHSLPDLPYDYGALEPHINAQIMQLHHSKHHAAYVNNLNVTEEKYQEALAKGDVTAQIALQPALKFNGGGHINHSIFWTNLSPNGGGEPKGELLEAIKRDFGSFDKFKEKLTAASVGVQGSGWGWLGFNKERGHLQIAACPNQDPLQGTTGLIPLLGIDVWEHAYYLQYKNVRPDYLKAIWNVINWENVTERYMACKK
Test: SOD activity of human recombinant MnSOD treated with peroxynitrite
Format: biochemical
Conditions: human recombinant MnSOD with peroxynitrite (2.1 mM PN), 10 minutes on ice
Method: Peroxynitrite was diluted by 40 times with 0.3 M NaOH, and absorbance at 302 nm was measured. Then, it was quantified by using the molar absorption coefficient of peroxynitrite) (ε302=1670 M^−1 cm^−1).
For the measurement of SOD activity, SOD colorimetric activity kit by ThermoFisher was used. Human recombinant MnSOD within reference SOD range, peptide, and peroxynitrite were admixed with one another, and the reaction was allowed to occur on ice for 10 minutes. To a 96-well plate, 10 μl of reference SOD or the reaction mixture, and 50 μl of a substrate solution provided in the kit were added, and the absorbance at 450 nm was measured. After adding 25μl of xanthine oxidase provided in the kit and allowing the reaction to occur for 20 minutes at room temperature, absorbance at 450 nm was measured. By using the data obtained by subtracting the first-measured absorbance from the second-measured absorbance, SOD activity was obtained.

## N[C@H](Cc1ccc(O)cc1)C(=O)O [D-tyrosine]
  MnSOD (SOD) activity: higher MnSOD activity
